Test results taken from patent publication US20230126893A1, “[(1,4,5-TRISUBSTITUTED-1H-PYRAZOL-3-YL)SULFANYL]ACETIC ACID DERIVATIVES, SALTS THEREOF, AND USE THEREOF AS ACTIVE HERBICIDAL INGREDIENTS” (BAYER AKTIENGESELLSCHAFT, priority 2020, published 2023).

What was measured:
Format in all cases: in vivo
Setaria viridis [1] = experiment: Pre-emergence herbicidal effect against SETVI; details: 1280 g/ha, visual score after 3 weeks, 100% = plants have died, 0% = like control plants
Excerpt: (§1) 1. Pre-emergence herbicidal effect and crop plant compatibility Seeds of monocotyledonous and dicotyledonous weed plants and crop plants are laid out in sandy loam soil in wood-fibre pots and covered with soil. The compounds of the invention, formulated in the form of wettable powders (WP) or as emulsion concentrates (EC), are then applied to the surface of the covering soil as aqueous suspension or emulsion at a water application rate equating to 600 to 800 L/ha with addition of 0.2% wetting agent. After the treatment, the pots are placed in a greenhouse and kept under good growth conditions for the trial plants. The damage to the test plants is scored visually after a test period of 3 weeks by comparison with untreated controls (herbicidal activity in percent (%): 100% activity=the plants have died, 0% activity=like control plants). [table]

Veronica persica [2] = experiment: Pre-emergence herbicidal effect against VERPE; details: 1280 g/ha, visual score after 3 weeks, 100% = plants have died, 0% = like control plants
Excerpt: as §1

Stellaria media [3] = experiment: Pre-emergence herbicidal effect against STEME; details: 1280 g/ha, visual score after 3 weeks, 100% = plants have died, 0% = like control plants
Excerpt: as §1

Amaranthus retroflexus [4] = experiment: Pre-emergence herbicidal effect against AMARE; details: 1280 g/ha, visual score after 3 weeks, 100% = plants have died, 0% = like control plants
Excerpt: as §1

Bassia scoparia = experiment: Post-emergence herbicidal effect against KCHSC; details: 1280 g/ha, visual assessment about 3 weeks after treatment, 100% = plants have died, 0% = like control plants
Procedure: (§2) [table] 2. Post-emergence herbicidal effect and crop plant compatibility Seeds of monocotyledonous and dicotyledonous weed and crop plants are laid out in sandy loam soil in wood-fibre pots, covered with soil and cultivated in a greenhouse under good growth conditions. 2 to 3 weeks after sowing, the test plants are treated at the one-leaf stage. The compounds of the invention, formulated in the form of wettable powders (WP) or as emulsion concentrates (EC), are then sprayed onto the green parts of the plants as aqueous suspension or emulsion at a water application rate equating to 600 to 800 l/ha with addition of 0.2% wetting agent. After the test plants have been left to stand in the greenhouse under optimal growth conditions for about 3 weeks, the action of the preparations is assessed visually in comparison to untreated controls (herbicidal action in percent (%): 100% activity=the plants have died, 0% activity=like control plants).

Echinochloa crus-galli [5] = experiment: Post-emergence herbicidal effect against ECHCG; details: 1280 g/ha, visual score after about 3 weeks, 100% = plants have died, 0% = like control plants
Procedure: as §2

Digitaria sanguinalis [6] = experiment: Pre-emergence herbicidal effect against DIGSA; details: 1280 g/ha, visual score after 3 weeks, 100% = plants have died, 0% = like control plants
Excerpt: as §1

[7] = tested on: Tripleurospermum inodorum; experiment: Pre-emergence herbicidal effect against MATIN; details: 1280 g/ha, visual score after 3 weeks, 100% = plants have died, 0% = like control plants
Excerpt: as §1

Echinochloa crus-galli [8] = experiment: Pre-emergence herbicidal effect against ECHCG; details: 1280 g/ha, visual score after 3 weeks, 100% = plants have died, 0% = like control plants
Excerpt: as §1

Alopecurus myosuroides [9] = experiment: Pre-emergence herbicidal effect against ALOMY; details: 1280 g/ha, visual score after 3 weeks, 100% = plants have died, 0% = like control plants
Excerpt: as §1

Alopecurus myosuroides [10] = experiment: Post-emergence herbicidal effect against ALOMY; details: 1280 g/ha, visual score after about 3 weeks, 100% = plants have died, 0% = like control plants
Procedure: as §2

Digitaria sanguinalis [11] = experiment: Post-emergence herbicidal effect against DIGSA; details: 1280 g/ha, visual score after about 3 weeks, 100% = plants have died, 0% = like control plants
Procedure: as §2

Poa annua [12] = experiment: Post-emergence herbicidal effect against POAAN; details: 1280 g/ha, visual assessment about 3 weeks after treatment, 100% = plants have died, 0% = like control plants
Procedure: as §2

Veronica persica [13] = experiment: Post-emergence herbicidal effect against VERPE; details: 1280 g/ha, visual assessment about 3 weeks after treatment, 100% = plants have died, 0% = like control plants
Procedure: as §2

Lolium rigidum = experiment: Pre-emergence herbicidal effect against LOLRI; details: 1280 g/ha, visual score after 3 weeks, 100% = plants have died, 0% = like control plants
Excerpt: as §1

Poa annua [14] = experiment: Pre-emergence herbicidal effect against POAAN; details: 1280 g/ha, visual score after 3 weeks, 100% = plants have died, 0% = like control plants
Excerpt: as §1

Abutylon threophrasti = experiment: Post-emergence herbicidal effect against ABUTH; details: 1280 g/ha, visual assessment about 3 weeks after treatment, 100% = plants have died, 0% = like control plants
Procedure: as §2

Amaranthus retroflexus [15] = experiment: Post-emergence herbicidal effect against AMARE; details: 1280 g/ha, visual assessment about 3 weeks after treatment, 100% = plants have died, 0% = like control plants
Procedure: as §2

[16] = tested on: Tripleurospermum inodorum; experiment: Post-emergence herbicidal effect against MATIN; details: 1280 g/ha, visual assessment about 3 weeks after treatment, 100% = plants have died, 0% = like control plants
Procedure: as §2

Stellaria media [17] = experiment: Post-emergence herbicidal effect against STEME; details: 1280 g/ha, visual assessment about 3 weeks after treatment, 100% = plants have died, 0% = like control plants
Procedure: as §2

Setaria viridis [18] = experiment: Post-emergence herbicidal effect against SETVI; details: 1280 g/ha, visual assessment about 3 weeks after treatment, 100% = plants have died, 0% = like control plants
Procedure: as §2

CCOC(=O)C[S+]([O-])c1nn(-c2cccc(F)c2F)c(-c2ccccc2)c1Br (stereo not drawn) [Example I-010]
Pre-emergence action against SETVI (Setaria viridis [1]): 100% | Pre-emergence action against VERPE (Veronica persica [2]): 100% | Pre-emergence action against STEME (Stellaria media [3]): 100% | Pre-emergence action against AMARE (Amaranthus retroflexus [4]): 100% | Post-emergence action against KCHSC (Bassia scoparia): 90% | Post-emergence action against ECHCG (Echinochloa crus-galli [5]): 100% | Pre-emergence action against DIGSA (Digitaria sanguinalis [6]): 100% | Pre-emergence action against MATIN [7]: 100% | Pre-emergence action against ECHCG (Echinochloa crus-galli [8]): 100% | Pre-emergence action against ALOMY (Alopecurus myosuroides [9]): 100% | Post-emergence action against ALOMY (Alopecurus myosuroides [10]): 100% | Post-emergence action against DIGSA (Digitaria sanguinalis [11]): 90% | Post-emergence action against POAAN (Poa annua [12]): 100% | Post-emergence action against VERPE (Veronica persica [13]): 90% | Pre-emergence action against LOLRI (Lolium rigidum): 100% | Pre-emergence action against POAAN (Poa annua [14]): 100% | Post-emergence action against ABUTH (Abutylon threophrasti): 90% | Post-emergence action against AMARE (Amaranthus retroflexus [15]): 90% | Post-emergence action against MATIN [16]: 100% | Post-emergence action against STEME (Stellaria media [17]): 90%

CCOC(=O)CSc1nn(-c2ccccc2F)c(-c2ccc(F)c(F)c2)c1Br [Example I-002, Ethyl {[4-bromo-5-(3,4-difluorophenyl)-1-(2-fluorophenyl)-1H-pyrazol-3-yl]sulfanyl}acetate]
Pre-emergence action against SETVI (Setaria viridis [1]): 100% | Pre-emergence action against VERPE (Veronica persica [2]): 100% | Pre-emergence action against STEME (Stellaria media [3]): 100% | Pre-emergence action against AMARE (Amaranthus retroflexus [4]): 100% | Pre-emergence action against DIGSA (Digitaria sanguinalis [6]): 90% | Pre-emergence action against MATIN [7]: 100% | Pre-emergence action against ALOMY (Alopecurus myosuroides [9]): 90% | Post-emergence action against ALOMY (Alopecurus myosuroides [10]): 100% | Post-emergence action against DIGSA (Digitaria sanguinalis [11]): 100% | Post-emergence action against VERPE (Veronica persica [13]): 90% | Pre-emergence action against LOLRI (Lolium rigidum): 100% | Pre-emergence action against POAAN (Poa annua [14]): 100% | Post-emergence action against ABUTH (Abutylon threophrasti): 90% | Post-emergence action against AMARE (Amaranthus retroflexus [15]): 90% | Post-emergence action against MATIN [16]: 100% | Post-emergence action against SETVI (Setaria viridis [18]): 100% | Post-emergence action against STEME (Stellaria media [17]): 100%

O=C(O)CSc1nn(-c2ccccc2F)c(-c2ccc(F)c(F)c2)c1Br [Example I-005, {[4-Bromo-5-(3,4-difluorophenyl)-1-(2-fluorophenyl)-1H-pyrazol-3-yl]sulfanyl}acetic acid]
Pre-emergence action against SETVI (Setaria viridis [1]): 100% | Pre-emergence action against VERPE (Veronica persica [2]): 100% | Pre-emergence action against STEME (Stellaria media [3]): 100% | Pre-emergence action against AMARE (Amaranthus retroflexus [4]): 100% | Pre-emergence action against DIGSA (Digitaria sanguinalis [6]): 100% | Pre-emergence action against MATIN [7]: 100% | Pre-emergence action against ALOMY (Alopecurus myosuroides [9]): 90% | Post-emergence action against ALOMY (Alopecurus myosuroides [10]): 100% | Post-emergence action against DIGSA (Digitaria sanguinalis [11]): 100% | Post-emergence action against VERPE (Veronica persica [13]): 90% | Pre-emergence action against LOLRI (Lolium rigidum): 100% | Pre-emergence action against POAAN (Poa annua [14]): 100% | Post-emergence action against AMARE (Amaranthus retroflexus [15]): 90% | Post-emergence action against MATIN [16]: 100% | Post-emergence action against STEME (Stellaria media [17]): 100%

CCOC(=O)CSc1nn(-c2ccccc2F)c(-c2ccc(F)nc2)c1Br [II-001, Ethyl {[4-bromo-1-(2-fluorophenyl)-5-(6-fluoropyridin-3-yl)-1H-pyrazol-3-yl]sulfanyl}acetate]
Pre-emergence action against SETVI (Setaria viridis [1]): 100% | Pre-emergence action against VERPE (Veronica persica [2]): 100% | Pre-emergence action against STEME (Stellaria media [3]): 90% | Pre-emergence action against AMARE (Amaranthus retroflexus [4]): 100% | Post-emergence action against ECHCG (Echinochloa crus-galli [5]): 100% | Pre-emergence action against DIGSA (Digitaria sanguinalis [6]): 100% | Pre-emergence action against MATIN [7]: 100% | Pre-emergence action against ECHCG (Echinochloa crus-galli [8]): 100% | Pre-emergence action against ALOMY (Alopecurus myosuroides [9]): 100% | Post-emergence action against ALOMY (Alopecurus myosuroides [10]): 100% | Post-emergence action against DIGSA (Digitaria sanguinalis [11]): 100% | Post-emergence action against POAAN (Poa annua [12]): 100% | Post-emergence action against VERPE (Veronica persica [13]): 90% | Pre-emergence action against LOLRI (Lolium rigidum): 100% | Pre-emergence action against POAAN (Poa annua [14]): 100% | Post-emergence action against ABUTH (Abutylon threophrasti): 90% | Post-emergence action against AMARE (Amaranthus retroflexus [15]): 100% | Post-emergence action against MATIN [16]: 100% | Post-emergence action against SETVI (Setaria viridis [18]): 90% | Post-emergence action against STEME (Stellaria media [17]): 90%
